Measured values as given in US6686393B1, “Pharmaceutical compositions having antiviral activity against human cytomegalovirus” (Murdock International Corporation, priority 1990, dated 2004).
“And” between values parts separate entries of the source, which are not always exact repeats. Identical values can stand only once. “Also recorded” adds a separate entry of the source. Like-named read-outs stand apart in the source and are kept apart here.

Columns and labels:
[1] = system: human cytomegalovirus (HCMV), strain AD-169; assay: Antiviral test (plaque reduction) versus HCMV, strain AD-169, in MRC-5 cells; assay type: cell-based
[2] = system: HCMV, strain C8805-37 (DHPG-resistant); assay: microbe, parasite or virus in culture; assay type: cell-based, human cytomegalovirus; details: for inhibition at 0.01 µg/mL / inhibition at 0.032 µg/mL / inhibition at 0.1 µg/mL / inhibition at 0.32 µg/mL / inhibition at 1 µg/mL / inhibition at 3.2 µg/mL: Human betaherpesvirus 5, MRC5, read-out: Percent Inhibition Compared to Controls; for inhibition at 10 µg/mL: Human betaherpesvirus 5, MRC5, 96 h, read-out: Percent Inhibition Compared to Controls
[3] = Human betaherpesvirus 5, AD169, MRC5, 0.01 μg/ml, Example 2, read-out: Percent Inhibition of Plaque Numbers (Compared to Virus Controls)
[4] = Human betaherpesvirus 5, AD169, MRC5, 0.032 μg/ml, Example 2, read-out: Percent Inhibition of Plaque Numbers (Compared to Virus Controls)
[5] = Human betaherpesvirus 5, AD169, MRC5, 0.1 μg/ml, Example 2, read-out: Percent Inhibition of Plaque Numbers (Compared to Virus Controls)
[6] = Human betaherpesvirus 5, AD169, MRC5, 0.32 μg/ml, Example 2, read-out: Percent Inhibition of Plaque Numbers (Compared to Virus Controls)
[7] = Human betaherpesvirus 5, AD169, MRC5, 1.0 μg/ml, Example 2, read-out: Percent Inhibition of Plaque Numbers (Compared to Virus Controls)
[8] = Human betaherpesvirus 5, AD169, MRC5, read-out: % Reduction
[9] = Example 3, cells exposed 4 days
[10] = Table 9 summary, two values = two experiments
[11] = Table 10 summary, DHPG resistant HCMV test

Cc1cc(O)c2c(c1)Cc1cc(O)cc(O)c1C2=O [Emodin Anthrone, emodin anthrone]
Percent Inhibition of Plaque Numbers (Compared to Virus Controls) ([1]; 3.2 μg/ml, Example 2): toxic
Percent Inhibition of Plaque Numbers (Compared to Virus Controls) ([1]; 10 μg/ml, Example 2, ethanol stock (protohypericin in DMSO), cells exposed 6 or more days): toxic
inhibition at 0.01 µg/mL [1, 3]: 0%
inhibition at 0.032 µg/mL [1, 4]: 0%
inhibition at 0.1 µg/mL [1, 5]: 0%
inhibition at 0.32 µg/mL [1, 6]: 0%
inhibition at 1 µg/mL [1, 7]: 0%
Activity in initial screening against HCMV in vitro ([1]; initial screening, in words): not active
Activity against DHPG resistant HCMV strain [2]: shows activity; also recorded: active
Percent Inhibition Compared to Controls [2]: toxic
inhibition at 0.01 µg/mL [2]: 0%
inhibition at 0.032 µg/mL [2]: 0%
inhibition at 0.1 µg/mL [2]: 0%
inhibition at 0.32 µg/mL [2]: 0%
inhibition at 1 µg/mL [2]: 24%
inhibition at 3.2 µg/mL [2]: 100%
CD50 (MRC-5 cells; human, 4 days): 2.6 µg/mL

O=C(O)c1cc(O)c2c(c1)C(=O)c1cccc(O)c1C2=O [Rhein, rhein]
inhibition at 3.2 µg/mL [1, 8]: 100%
inhibition at 10 µg/mL [2]: 100%
inhibition at 0.01 µg/mL [2]: 0%
inhibition at 0.032 µg/mL [2]: 0%
inhibition at 0.1 µg/mL [2]: 38%
inhibition at 0.32 µg/mL [2]: 0%
inhibition at 1 µg/mL [2]: 49%
inhibition at 3.2 µg/mL [2]: 100%
CD50 (MRC-5 cells; [9]): >10 µg/mL
CD50 (MRC-5 cells; Example 5): 3.4 µg/mL
CD50 (MRC-5 cells; Example 7): 2.9 µg/mL
CD50 (MRC-5 cells; [10]): 3.4 µg/mL and 2.9 µg/mL
CD50 (MRC-5 cells; [11]): >10 µg/mL

O=C1c2ccccc2C(=O)c2c1ccc(O)c2O [Alizarin, alizarin]
Activity against HCMV [1]: show activity; also recorded: active
inhibition at 0.01 µg/mL [1, 8]: 0%
inhibition at 0.032 µg/mL [1, 8]: 0%
inhibition at 0.1 µg/mL [1, 8]: 0%
inhibition at 0.32 µg/mL [1, 8]: 0%
inhibition at 1 µg/mL [1, 8]: 0%
inhibition at 3.2 µg/mL [1, 8]: 0%
inhibition at 10 µg/mL [1, 8]: 96%
inhibition at 10 µg/mL [2]: 97%
inhibition at 0.01 µg/mL [2]: 0%
inhibition at 0.032 µg/mL [2]: 19%
inhibition at 0.1 µg/mL [2]: 0%
inhibition at 0.32 µg/mL [2]: 0%
inhibition at 1 µg/mL [2]: 21%
inhibition at 3.2 µg/mL [2]: 75%
CD50 (MRC-5 cells; [9]): >10 µg/mL
CD50 (MRC-5 cells; Example 5): > 10 µg/mL and ~13 µg/mL
CD50 (MRC-5 cells; [10]): >10 µg/mL
CD50 (MRC-5 cells; [11]): >10 µg/mL

O=C1c2cccc(O)c2C(=O)c2c(O)cccc21 [1,8-Dihydroxyanthraquinone, 1,8-dihydroxyanthraquinone]
Number of Plaques ([1]; 0.01 μg/ml, Example 6): 10
Number of Plaques ([1]; 0.01 μg/ml, Example 7): 26
Number of Plaques ([1]; 0.032 μg/ml, Example 6): 9
Number of Plaques ([1]; 0.032 μg/ml, Example 7): 20
Number of Plaques ([1]; 0.1 μg/ml, Example 6): 10
Number of Plaques ([1]; 0.1 μg/ml, Example 7): 22
Number of Plaques ([1]; 0.32 μg/ml, Example 6): 12
Number of Plaques ([1]; 0.32 μg/ml, Example 7): 44
Number of Plaques ([1]; 1.0 μg/ml, Example 6): 10
Number of Plaques ([1]; 1.0 μg/ml, Example 7): 35
Number of Plaques ([1]; 3.2 μg/ml, Example 6): 8
Number of Plaques ([1]; 3.2 μg/ml, Example 7): 42
Number of Plaques ([1]; 10.0 μg/ml, Example 6): 12
Number of Plaques ([1]; 10.0 μg/ml, Example 7): 30
inhibition at 0.01 µg/mL ([1]; Human betaherpesvirus 5, AD169, MRC5, 0.01 μg/ml, Example 6, read-out: % Reduction): 0%
inhibition at 0.01 µg/mL ([1]; Human betaherpesvirus 5, AD169, MRC5, 0.01 μg/ml, Example 7, read-out: % Reduction): 0%
inhibition at 0.032 µg/mL ([1]; Human betaherpesvirus 5, AD169, MRC5, 0.032 μg/ml, Example 6, read-out: % Reduction): 0%
inhibition at 0.032 µg/mL ([1]; Human betaherpesvirus 5, AD169, MRC5, 0.032 μg/ml, Example 7, read-out: % Reduction): 37%
inhibition at 0.1 µg/mL ([1]; Human betaherpesvirus 5, AD169, MRC5, 0.1 μg/ml, Example 6, read-out: % Reduction): 0%
inhibition at 0.1 µg/mL ([1]; Human betaherpesvirus 5, AD169, MRC5, 0.1 μg/ml, Example 7, read-out: % Reduction): 31%
inhibition at 0.32 µg/mL ([1]; Human betaherpesvirus 5, AD169, MRC5, 0.32 μg/ml, Example 6, read-out: % Reduction): 0%
inhibition at 0.32 µg/mL ([1]; Human betaherpesvirus 5, AD169, MRC5, 0.32 μg/ml, Example 7, read-out: % Reduction): 0%
inhibition at 1 µg/mL ([1]; Human betaherpesvirus 5, AD169, MRC5, 1.0 μg/ml, Example 6, read-out: % Reduction): 0%
inhibition at 1 µg/mL ([1]; Human betaherpesvirus 5, AD169, MRC5, 1.0 μg/ml, Example 7, read-out: % Reduction): 0%
inhibition at 3.2 µg/mL ([1]; Human betaherpesvirus 5, AD169, MRC5, 3.2 μg/ml, Example 6, read-out: % Reduction): 0%
inhibition at 3.2 µg/mL ([1]; Human betaherpesvirus 5, AD169, MRC5, 3.2 μg/ml, Example 7, read-out: % Reduction): 0%
inhibition at 10 µg/mL ([1]; Human betaherpesvirus 5, AD169, MRC5, 10.0 μg/ml, Example 6, read-out: % Reduction): 0%
inhibition at 10 µg/mL ([1]; Human betaherpesvirus 5, AD169, MRC5, 10.0 μg/ml, Example 7, read-out: % Reduction): 0%
Activity against HCMV ([1]; statement in words on the plaque reduction results, listed as 1,8-dihydroxy anthraquinone): Slight activity
Activity against HCMV ([1]; statement in words on the plaque reduction results, listed as 1,8-dihydroxyanthraquinone): show activity; also recorded: activity but at lower levels
CD50 (MRC-5 cells; human): >10 µg/mL

O=C1c2ccccc2C(=O)c2c(O)ccc(O)c21 [Quinizarin, 1,4-dihydroxyanthraquinone]
Activity against HCMV [1]: Slight activity; also recorded: show activity; also recorded: activity but at lower levels
inhibition at 0.01 µg/mL [1, 8]: 0%
inhibition at 0.032 µg/mL [1, 8]: 0%
inhibition at 0.1 µg/mL [1, 8]: 0%
inhibition at 0.32 µg/mL [1, 8]: 0%
CD50 (MRC-5 cells; human): >10 µg/mL

O=C1c2cccc(O)c2C(=O)c2c(O)cc(CO)cc21 [Aloe-Emodin, aloe-emodin]
inhibition at 0.01 µg/mL [1, 3]: 0%
inhibition at 0.032 µg/mL [1, 4]: 0%
inhibition at 0.1 µg/mL [1, 5]: 0%
inhibition at 0.32 µg/mL [1, 6]: 0%
inhibition at 1 µg/mL [1, 7]: 0%
inhibition at 3.2 µg/mL ([1]; Human betaherpesvirus 5, AD169, MRC5, 3.2 μg/ml, Example 2, read-out: Percent Inhibition of Plaque Numbers (Compared to Virus Controls)): 0%
inhibition at 10 µg/mL ([1]; Human betaherpesvirus 5, AD169, MRC5, 10 μg/ml, Example 2, ethanol stock (protohypericin in DMSO), cells exposed 6 or more days, read-out: Percent Inhibition of Plaque Numbers (Compared to Virus Controls)): 0%
CD50 (MRC-5 cells; human): >10 µg/mL
